# Experimental data: US10988523B2, “Modified lipidated Relaxin B chain peptides and their therapeutic use” (Sanofi, priority 2018, dated 2021)
# Where two headings read alike, the source gives them in different places. *1 amine or outer side, *2 acyl side, *3 side chain or, on linkers, in order; H or OH if unused. Where a SMILES comes first, the peptide text is derived from it. Side-chain parts run from the residue outwards. [ ]: non-standard residue; d: D form. The star is where a group is joined. X2 = CCCCCCCCCCCCCCCCCC(=O)N[C@@H](CCC(=O)N[C@@H](CCC(=O)N[C@@H](CCC(=O)NCCCC[C@H](NC(=O)COCC(=O)NCCCOCCOCCOCCCNC(=O)COCC(=O)NCCCOCCOCCOCCCNC(=O)COCC(=O)NCCCOCCOCCOCCCN*)C(N)=O)C(=O)O)C(=O)O)C(=O)O; PEG12 = NCCOCCOCCOCCOCCOCCOCCOCCOCCOCCOCCOCCOCCC(=O)O; γGlu = O=C(O)[C@H](CCC(=O)[*:2])N[*:1]; Stearoyl = CCCCCCCCCCCCCCCCCC(=O)*; Nle = CCCC[C@H](N)C(=O)O; AEEA = NCCOCCOCC(=O)O; Aib = CC(C)(N)C(=O)O
# How the values were obtained:
# RXFP1 = target: T1, RXFP1 (Homo sapiens, UniProt Q9HBX9); experiment: OVCAR5 cAMP assay (HTRF), RXFP1 agonist activity; type: cell-based; details: for Emax: OVCAR-5
# T1 construct: OVCAR5 cells expressing endogenous RXFP1; endogenous in cells; host or cells: OVCAR5 cells
# T1 sequence (Q9HBX9 1-757): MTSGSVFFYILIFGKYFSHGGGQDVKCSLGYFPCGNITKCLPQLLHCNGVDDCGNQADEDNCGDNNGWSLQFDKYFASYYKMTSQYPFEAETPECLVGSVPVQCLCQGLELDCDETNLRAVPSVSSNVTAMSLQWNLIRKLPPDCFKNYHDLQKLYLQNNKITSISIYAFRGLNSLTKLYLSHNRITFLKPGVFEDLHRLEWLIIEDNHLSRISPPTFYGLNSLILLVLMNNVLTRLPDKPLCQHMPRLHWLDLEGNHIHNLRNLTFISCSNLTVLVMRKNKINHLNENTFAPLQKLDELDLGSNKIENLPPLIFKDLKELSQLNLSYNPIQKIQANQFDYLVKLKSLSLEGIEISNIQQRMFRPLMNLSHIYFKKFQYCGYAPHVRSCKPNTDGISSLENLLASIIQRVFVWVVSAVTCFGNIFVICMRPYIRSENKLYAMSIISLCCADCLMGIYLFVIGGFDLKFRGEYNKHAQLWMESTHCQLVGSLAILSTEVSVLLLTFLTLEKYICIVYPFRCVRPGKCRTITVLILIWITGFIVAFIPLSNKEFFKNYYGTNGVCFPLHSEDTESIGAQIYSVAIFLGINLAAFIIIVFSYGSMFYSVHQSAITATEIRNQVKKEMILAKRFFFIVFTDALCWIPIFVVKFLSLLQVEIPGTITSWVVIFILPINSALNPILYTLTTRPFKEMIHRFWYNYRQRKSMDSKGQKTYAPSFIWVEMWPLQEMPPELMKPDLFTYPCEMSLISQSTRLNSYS
# In short: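 cAMP accumulation readout: after 1 mM IBMX for 40 min, endogenous-RXFP1 OVCAR5 cells got rising peptide concentrations without FCS, 30 min, 37° C, then lysis with HTRF cAMP reagents. Nonlinear regression gave EC50; Emax expressed relative to H2-relaxin maximum, same occasion.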
# [1] = Solubility testing of peptides in buffer; type: physicochemical
# Method: Prior to the testing of solubility of a peptide batch, its purity (HPLC-UV) was determined.
# Acetate Buffer 50 mM pH4.5: 0.75 g […], 3H2O (Sigma 57545)+0.35 ml CH3CO2H 100% solution dissolved in Millipore water, adjusted to pH with diluted (1:1) CH3CO2H and diluted to 250 ml with Millipore water.
# In a 4 ml Ependorph vial, an accurately weighed sample of compound was diluted in study media to obtain target concentration of 2, 6 or 10 mg/ml of pure compound. The sample vials were shacked (rock 'roll shaker) for ˜19 h. 3004, Aliquots ( ) were filtered through a Millipore “Solvinert” plate (0.45 μm—PTFE hydrophilic).
# pH was measured with a micro electrode
# Waters Acquity UPLC System with DAD detector
# Column: Waters Peptide Column CSH C18 (130 Å; 1.7 μm; 50*2.1 mm)
# Column temperature: 60° C.
# Full loop (about 5 μL)—overfill factor 5
# Weak et Strong wash: H2O/ACN (75/25; V/V); Seal wash: H2O/IsOH (95/5; V/V). Mobile phase:
# Solvent A: 0.05% TFA in H2O; Solvent B: 0.035% TFA in CH3CN
# Gradient: from 0 to 12 min B=2% to 60%, from 12 to 14 min B=60% to 100%. Column washing 100% B 1 min, column equilibration 2% B 2.5 min.
# UV detector: wavelength: 220 nm.
# [2] = Stability testing of peptides in human plasma or blood; type: in vitro ADME; details: 37° C.; for Human Plasma stability % remaining T = 0: human plasma or blood, T = 0 (reference), 5 μM; for remaining at 1 h, 5 µM / remaining at 4 h, 5 µM: human plasma; for remaining at 1 h, 5 µM: read-out: Human Plasma stability % remaining 1 h; for remaining at 4 h, 5 µM: read-out: Human Plasma stability % remaining 4 h
# In short: (§1)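 Peptide at 5 µM final was incubated at 37 °C in heparinized rat or human plasma or blood, sampled up to 4 h, and extracted with acetonitrile/1% TFA. HPLC peak areas relative to t0 give % remaining peptide.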
# [3] = Stability testing of peptides in rat plasma or blood; type: in vitro ADME; details: 37° C.; for Rat plasma stability % remaining T = 0: rat plasma or blood, T = 0 (reference), 5 μM; for remaining at 1 h, 5 µM / remaining at 4 h, 5 µM: rat plasma; for remaining at 1 h, 5 µM: read-out: Rat plasma stability % remaining 1 h; for remaining at 4 h, 5 µM: read-out: Rat plasma stability % remaining 4 h
# In short: as §1
# [4] = Pharmacokinetic (PK) determination after i.v. or s.c. administration to rats; type: in vivo, Sprague Dawley rats; details: Sprague Dawley, Rat PK; for C0 / half-life: iv, 1 mg/kg i.v.; for C0: extrapolated plasma concentration at t=0, read-out: C0; for half-life / Cmax / Tmax / bioavailability: plasma; for half-life: read-out: T½ (converted); for Cmax / Tmax: sc, 3 mg/kg s.c.; for bioavailability: subcutaneous, 3 mg/kg s.c. vs 1 mg/kg i.v., dose-corrected AUC ratio
# In short: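 Non-compartmental analysis of plasma LC/MS data (protein precipitation, BLQ taken as zero) gave T½, C0 (i.v.), Cmax/Tmax (s.c.) and F% from dose-corrected AUCs. Dosing: 3 mg/kg s.c. or 1 mg/kg i.v. in PBS to Sprague Dawley rats, purity- and salt-corrected.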
# [5] = maximal cAMP relative to H2-relaxin maximal cAMP x 100, read-out: Emax cAMP assay in OVCAR 5 cells
# [6] = acetate buffer 50 mM pH 4.5, target solubility 2.0 mg/ml, read-out: Solubility Acetate buffer pH 4.5
# [7] = phosphate buffer 50 mM pH 7.4, target solubility 2.0 mg/ml, read-out: Solubility phosphate buffer pH 7.4
# [8] = OVCAR5 cells expressing endogenous RXFP1, cAMP readout, 30 min, 1 mM IBMX, read-out: EC50 cAMP assay in OVCAR 5 cells
# [9] = maximal cAMP relative to H2-relaxin maximum (100%), read-out: EMax, OVCAR 5 cells (cAMP)
# [10] = acetate buffer, pH 4.5, read-out: Solubility Acetate buffer pH 4.5
# [11] = phosphate buffer, pH 7.4, read-out: Solubility phosphate buffer pH 7.4
Compound,Emax (RXFP1; [5]),"solubility [1, 6]","solubility [1, 7]",Human Plasma stability % remaining T = 0 [2],"remaining at 1 h, 5 µM [2]","remaining at 4 h, 5 µM [2]",Rat plasma stability % remaining T = 0 [3],"remaining at 1 h, 5 µM [3]","remaining at 4 h, 5 µM [3]",EC50 (RXFP1; [8]),Emax (RXFP1; [9]),"solubility [1, 10]","solubility [1, 11]",C0 [4],half-life [4],Cmax [4],Tmax [4],bioavailability [4],further results
"Ac-VIKLSGRELVRAQIAISGMSTWSKRSL-NH2 [AcB7-33 C11.23S, reference compound]",70%,1540 µg/mL,< 1 µg/mL,100%,67%,18%,100%,16%,2%,–,–,–,–,–,–,–,–,–,–
"Ac-VIKLSGRELVRAQIAISGMSTWSKKKK-NH2 [KKKK(AcB7-29 C11.23S), reference compound]",84%,2300 µg/mL,177 µg/mL,100%,41%,31%,100%,23%,14%,206 nM,–,–,–,–,–,–,–,–,–
"H-VIKLSGRELVRAQIAISGMSTWSKRSL-NH2 [B7-33 C11.23S, reference compound]",90%,–,–,100%,18%,3%,100%,15%,2%,1640 nM,–,–,–,–,–,–,–,–,"Solubility Acetate buffer pH 4.5 ([1]; acetate buffer 50 mM pH 4.5, target solubility 2.0 mg/ml): 1.9 mg/ml; Solubility phosphate buffer pH 7.4 ([1]; phosphate buffer 50 mM pH 7.4, target solubility 2.0 mg/ml): 0.014 mg/ml"
CCCCCCCCCCCCCCCCCC(=O)N[C@@H](CCC(=O)N[C@@H](CCC(=O)N[C@@H](CCC(=O)NCCCC[C@H](NC(=O)CCOCCOCCOCCOCCOCCOCCOCCOCCOCCOCCOCCOCCNC(=O)[C@H](CCCCN)NC(=O)[C@H](CCCNC(=N)N)NC(=O)C(C)(C)NC(=O)[C@H](CO)NC(=O)[C@H](Cc1c[nH]c2ccccc12)NC(=O)[C@@H](NC(=O)[C@H](CO)NC(=O)[C@H](CCCC)NC(=O)CNC(=O)[C@H](CCC(=O)O)NC(=O)C(C)(C)NC(=O)C(C)(C)NC(=O)[C@@H](NC(=O)[C@H](CCC(N)=O)NC(=O)[C@H](C)NC(=O)[C@H](CCCNC(=N)N)NC(=O)[C@@H](NC(=O)[C@H](CCCCN)NC(=O)[C@H](CCC(=O)O)NC(=O)[C@H](CCCNC(=N)N)NC(=O)CNC(=O)[C@H](CCC(=O)O)NC(=O)[C@H](CC(C)C)NC(C)=O)C(C)C)[C@@H](C)CC)[C@@H](C)O)C(N)=O)C(=O)O)C(=O)O)C(=O)O [compound 30] (Ac-LEGREKVRAQI[Aib][Aib]EG[Nle]STWS[Aib]RK[PEG12]K([γGlu-γGlu-γGlu-Stearoyl])-NH2),–,–,–,–,–,–,–,–,–,–,89%,7000 µg/mL,7000 µg/mL,2200 nM,4.8 h,600 nM,4 h,105%,–
CCCCCCCCCCCCCCCCCC(=O)N[C@@H](CCC(=O)N[C@@H](CCC(=O)N[C@@H](CCC(=O)NCCCC[C@H](NC(=O)COCCOCCNC(=O)COCCOCCNC(=O)COCCOCCNC(=O)[C@H](CCCCNC(C)=O)NC(=O)[C@H](CCCCN)NC(=O)[C@H](CCCNC(=N)N)NC(=O)C(C)(C)NC(=O)[C@H](CO)NC(=O)[C@H](Cc1c[nH]c2ccccc12)NC(=O)[C@@H](NC(=O)[C@H](CO)NC(=O)[C@H](CCCC)NC(=O)CNC(=O)[C@H](CCC(=O)O)NC(=O)C(C)(C)NC(=O)C(C)(C)NC(=O)[C@@H](NC(=O)[C@H](CCCCNC(C)=O)NC(=O)[C@H](C)NC(=O)[C@H](CCCNC(=N)N)NC(=O)[C@@H](NC(=O)[C@H](CCCCN)NC(=O)[C@H](CCC(=O)O)NC(=O)[C@H](CCCNC(=N)N)NC(=O)CNC(=O)[C@H](CCC(=O)O)NC(=O)[C@H](CC(C)C)NC(C)=O)C(C)C)[C@@H](C)CC)[C@@H](C)O)C(N)=O)C(=O)O)C(=O)O)C(=O)O [compound 14] (Ac-LEGREKVRAK(Ac)I[Aib][Aib]EG[Nle]STWS[Aib]RKK(Ac)[AEEA][AEEA][AEEA]K([γGlu-γGlu-γGlu-Stearoyl])-NH2),–,–,> 2100 µg/mL,–,–,–,–,–,–,–,88%,–,–,4000 nM,3.4 h,1500 nM,6 h,93%,"EC50 (RXFP1; OVCAR5 cells, cAMP HTRF, read-out: EC50 (nM), OVCAR 5 cells (cAMP)): 0.04 nM"
CCCCCCCCCCCCCCCCCC(=O)N[C@@H](CCC(=O)N[C@@H](CCC(=O)N[C@@H](CCC(=O)NCCCC[C@H](NC(=O)COCC(=O)NCCCOCCOCCOCCCNC(=O)COCC(=O)NCCCOCCOCCOCCCNC(=O)COCC(=O)NCCCOCCOCCOCCCNC(=O)[C@H](CCCCNC(C)=O)NC(=O)[C@H](CCCCN)NC(=O)[C@H](CCCNC(=N)N)NC(=O)C(C)(C)NC(=O)[C@H](CO)NC(=O)[C@H](Cc1c[nH]c2ccccc12)NC(=O)[C@@H](NC(=O)[C@H](CO)NC(=O)[C@H](CCCC)NC(=O)CNC(=O)[C@H](CCC(=O)O)NC(=O)C(C)(C)NC(=O)C(C)(C)NC(=O)[C@@H](NC(=O)[C@H](CCCCNC(C)=O)NC(=O)[C@H](C)NC(=O)[C@H](CCCNC(=N)N)NC(=O)[C@@H](NC(=O)[C@H](CCCCN)NC(=O)[C@H](CCC(=O)O)NC(=O)[C@H](CCCNC(=N)N)NC(=O)CNC(=O)[C@H](CCC(=O)O)NC(=O)[C@H](CC(C)C)NC(C)=O)C(C)C)[C@@H](C)CC)[C@@H](C)O)C(N)=O)C(=O)O)C(=O)O)C(=O)O [compound 20] (Ac-LEGREKVRAK(Ac)I[Aib][Aib]EG[Nle]STWS[Aib]RKK(Ac)-X2),–,–,–,–,–,–,–,–,–,–,88%,5600 µg/mL,5600 µg/mL,4000 nM,3.96 h,3000 nM,8 h,73%,–
